Target: cAMP-specific 3′,5′-cyclic phosphodiesterase 4B (PDE4B) (Homo sapiens, UniProt Q07343)
Sequence (Q07343 whole entry): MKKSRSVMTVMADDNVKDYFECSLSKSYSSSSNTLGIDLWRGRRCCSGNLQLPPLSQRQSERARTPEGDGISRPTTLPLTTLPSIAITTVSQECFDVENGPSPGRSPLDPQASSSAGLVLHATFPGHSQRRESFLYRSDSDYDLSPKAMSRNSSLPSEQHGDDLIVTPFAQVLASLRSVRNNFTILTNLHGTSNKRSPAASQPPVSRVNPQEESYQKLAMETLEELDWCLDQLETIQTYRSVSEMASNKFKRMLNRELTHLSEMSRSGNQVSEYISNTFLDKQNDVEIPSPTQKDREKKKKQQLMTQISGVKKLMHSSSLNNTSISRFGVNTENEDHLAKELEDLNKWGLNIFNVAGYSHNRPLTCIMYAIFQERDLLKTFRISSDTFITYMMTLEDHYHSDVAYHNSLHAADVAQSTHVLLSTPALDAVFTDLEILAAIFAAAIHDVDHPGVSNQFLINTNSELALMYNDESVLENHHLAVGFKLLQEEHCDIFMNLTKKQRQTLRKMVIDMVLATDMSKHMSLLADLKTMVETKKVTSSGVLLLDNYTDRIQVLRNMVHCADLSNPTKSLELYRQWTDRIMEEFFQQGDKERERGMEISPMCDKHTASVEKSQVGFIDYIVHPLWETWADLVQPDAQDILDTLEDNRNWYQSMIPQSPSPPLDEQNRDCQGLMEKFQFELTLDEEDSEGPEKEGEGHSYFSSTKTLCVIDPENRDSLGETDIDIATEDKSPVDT

COc1ccc(C2CNC(=O)C2)cc1OC1CCCC1 (stereo not shown) [roliparm]
inkjet-printed paper-based competitive FRET cAMP assay of PDE4B inhibition (IM50): 2.46e-13 mol
